Assay results as given in ChEMBL document CHEMBL3885881, “DrugMatrix”.

Organism: Rattus norvegicus
Experiment: DrugMatrix - Regimen: Daily Repeat
Type: toxicity, organism-based, Sprague-Dawley
Parameters: regimen Daily Repeat, gender Male, age 6-8 weeks
Details: in vivo, po, route oral GAVAGE, vehicle 100 % WATER; for ABSOLUTE BASOPHIL / ABSOLUTE EOSINOPHIL / ABSOLUTE LYMPHOCYTE / ABSOLUTE MONOCYTE / ABSOLUTE SEGMENTED NEUTROPHIL / BASOPHIL / EOSINOPHIL / ERYTHROCYTE COUNT / HEMATOCRIT / HEMOGLOBIN / LEUKOCYTE COUNT / LYMPHOCYTE / MEAN CORPUSCULAR HEMOGLOBIN / MEAN CORPUSCULAR HEMOGLOBIN CONCENTRATION / MEAN CORPUSCULAR VOLUME / MONOCYTE / NEUTROPHIL / NUCLEATED RED BLOOD CELLS / PLATELET COUNT: tissue Blood; for ALANINE AMINOTRANSFERASE / ALBUMIN / ALKALINE PHOSPHATASE / ASPARTATE AMINOTRANSFERASE / BLOOD UREA NITROGEN / CARBON DIOXIDE / CHLORIDE / CHOLESTEROL / CREATINE PHOSPHOKINASE / CREATININE / GLUCOSE / LACTATE DEHYDROGENASE / LIPASE / PHOSPHORUS / POTASSIUM / SODIUM / TOTAL BILIRUBIN / TOTAL PROTEIN / URIC ACID: tissue Plasma
[1] = 0 mg/kg, 72 h, dose level Control, time 3 day
[2] = 0 mg/kg, 120 h, dose level Control, time 5 day
[3] = 25 mg/kg, 72 h, dose level High, time 3 day

## O=P1(N(CCCl)CCCl)NCCCO1 (centres undefined) [CYCLOPHOSPHAMIDE ANHYDROUS]
[1]
  ABSOLUTE BASOPHIL: 0 CELLS/uL
  ABSOLUTE EOSINOPHIL: 32.5 CELLS/uL
  ABSOLUTE LYMPHOCYTE: 9305.83 CELLS/uL
  ABSOLUTE MONOCYTE: 43.83 CELLS/uL
  ABSOLUTE SEGMENTED NEUTROPHIL: 817.83 CELLS/uL
  BASOPHIL: 0%
  EOSINOPHIL: 0.33%
  ERYTHROCYTE COUNT: 5.38 x10E6/uL
  HEMATOCRIT: 33.63%
  HEMOGLOBIN: 13.17 G/DL
  LEUKOCYTE COUNT: 10.2 x10E3/uL
  LYMPHOCYTE: 91.17%
  MEAN CORPUSCULAR HEMOGLOBIN: 24.5 pg
  MEAN CORPUSCULAR HEMOGLOBIN CONCENTRATION: 39.13 G/DL
  MEAN CORPUSCULAR VOLUME: 62.53 fL
  MONOCYTE: 0.5%
  NEUTROPHIL: 8%
  NUCLEATED RED BLOOD CELLS: 0.17 /100WBC
  PLATELET COUNT: 858 x10E3/uL
  ALANINE AMINOTRANSFERASE: 55.67 u/L
  ALBUMIN: 4.07 G/DL
  ALKALINE PHOSPHATASE: 337 u/L
  ASPARTATE AMINOTRANSFERASE: 84 u/L
  BLOOD UREA NITROGEN: 13.17 mg/dL
  CARBON DIOXIDE: 34.17 mmol/L
  CHLORIDE: 99.33 MEQ/L
  CHOLESTEROL: 78.83 mg/dL
  CREATINE PHOSPHOKINASE: 576.83 u/L
  CREATININE: 0.17 mg/dL
  GLUCOSE: 152.67 mg/dL
  LACTATE DEHYDROGENASE: 147.83 u/L
  LIPASE: 9.5 u/L
  PHOSPHORUS: 10.78 mg/dL
  POTASSIUM: 6.34 MEQ/L
  SODIUM: 144.12 MEQ/L
  TOTAL BILIRUBIN: 0.18 mg/dL
  TOTAL PROTEIN: 6.08 G/DL
  URIC ACID: 0.65 mg/dL
[2]
  ABSOLUTE BASOPHIL: 0 CELLS/uL
  ABSOLUTE EOSINOPHIL: 31.17 CELLS/uL
  ABSOLUTE LYMPHOCYTE: 7918.33 CELLS/uL
  ABSOLUTE MONOCYTE: 58.33 CELLS/uL
  ABSOLUTE SEGMENTED NEUTROPHIL: 725.5 CELLS/uL
  BASOPHIL: 0%
  EOSINOPHIL: 0.33%
  ERYTHROCYTE COUNT: 5.32 x10E6/uL
  HEMATOCRIT: 33.53%
  HEMOGLOBIN: 13.17 G/DL
  LEUKOCYTE COUNT: 8.73 x10E3/uL
  LYMPHOCYTE: 90.33%
  MEAN CORPUSCULAR HEMOGLOBIN: 24.82 pg
  MEAN CORPUSCULAR HEMOGLOBIN CONCENTRATION: 39.33 G/DL
  MEAN CORPUSCULAR VOLUME: 63.12 fL
  MONOCYTE: 0.67%
  NEUTROPHIL: 8.67%
  NUCLEATED RED BLOOD CELLS: 0 /100WBC
  PLATELET COUNT: 1144.83 x10E3/uL
  ALANINE AMINOTRANSFERASE: 60.5 u/L
  ALBUMIN: 3.97 G/DL
  ALKALINE PHOSPHATASE: 343.17 u/L
  ASPARTATE AMINOTRANSFERASE: 80.83 u/L
  BLOOD UREA NITROGEN: 15 mg/dL
  CARBON DIOXIDE: 31 mmol/L
  CHLORIDE: 99.75 MEQ/L
  CHOLESTEROL: 71.5 mg/dL
  CREATINE PHOSPHOKINASE: 237.17 u/L
  CREATININE: 0.17 mg/dL
  GLUCOSE: 137 mg/dL
  LACTATE DEHYDROGENASE: 146.17 u/L
  LIPASE: 11.5 u/L
  PHOSPHORUS: 10.13 mg/dL
  POTASSIUM: 6 MEQ/L
  SODIUM: 145 MEQ/L
  TOTAL BILIRUBIN: 0.13 mg/dL
  TOTAL PROTEIN: 5.82 G/DL
  URIC ACID: 0.62 mg/dL
[3]
  ABSOLUTE BASOPHIL: 0 CELLS/uL
  ABSOLUTE EOSINOPHIL: 0 CELLS/uL
  ABSOLUTE LYMPHOCYTE: 2636 CELLS/uL
  ABSOLUTE MONOCYTE: 11 CELLS/uL
  ABSOLUTE SEGMENTED NEUTROPHIL: 486.33 CELLS/uL
  BASOPHIL: 0%
  EOSINOPHIL: 0%
  ERYTHROCYTE COUNT: 5 x10E6/uL
  HEMATOCRIT: 30.93%
  HEMOGLOBIN: 12.33 G/DL
  LEUKOCYTE COUNT: 3.13 x10E3/uL
  LYMPHOCYTE: 83.67%
  MEAN CORPUSCULAR HEMOGLOBIN: 24.73 pg
  MEAN CORPUSCULAR HEMOGLOBIN CONCENTRATION: 39.87 G/DL
  MEAN CORPUSCULAR VOLUME: 61.97 fL
  MONOCYTE: 0.33%
  NEUTROPHIL: 16%
  NUCLEATED RED BLOOD CELLS: 0 /100WBC
  PLATELET COUNT: 636 x10E3/uL
  ALANINE AMINOTRANSFERASE: 49.33 u/L
  ALBUMIN: 4.03 G/DL
  ALKALINE PHOSPHATASE: 291 u/L
  ASPARTATE AMINOTRANSFERASE: 68 u/L
  BLOOD UREA NITROGEN: 15.67 mg/dL
  CARBON DIOXIDE: 34 mmol/L
  CHLORIDE: 99.5 MEQ/L
  CHOLESTEROL: 84.67 mg/dL
  CREATINE PHOSPHOKINASE: 160 u/L
  CREATININE: 0.13 mg/dL
  GLUCOSE: 147 mg/dL
  LACTATE DEHYDROGENASE: 134 u/L
  LIPASE: 9.67 u/L
  PHOSPHORUS: 10.63 mg/dL
  POTASSIUM: 5.82 MEQ/L
  SODIUM: 144.75 MEQ/L
  TOTAL BILIRUBIN: 0.17 mg/dL
  TOTAL PROTEIN: 5.77 G/DL
  URIC ACID: 0.33 mg/dL
